Patent US20100240674A1 (priority 2007, published 2010)
Where a name gives a salt, the structure may show the parent alone.

Experiments:
[1] = test system: NPC mice; test: Hanging Test (locomotor activity); assay type: in vivo; conditions: 50 mg/Kg daily intraperitoneally for 28 days, vs saline
Text: To test locomotor activity, the Hanging Test that has been validated for these mice was used (Voikar et al., 2002). For this test a score from 0 to 5 was assigned to the mice based on their motor capabilities. To determine the score, the animal is observed during 30 seconds, a value is assigned according to the following scale: 0, if it falls before 10 seconds; 1, if it hangs from the bar with its fore paws; 2, if it tries to climb on the bar with its hind paws; 3, if it grabs the bar with its fore paws and one or two hind paws; 4, if it grabs the bar with all four paws and its tail; and 5, if it actively escapes from the bar and reaches one of the ends of the bar.

[2] = test system: cerebellar Purkinje neurons
Text: In all experiments discussed herein, “NPC mice” refers to mice deficient in the NPC1 protein or NPC1−/−. In FIG. 1, the cerebellums of 4 week old NPC mice and wild type mice are shown at a, b, g and h. The cerebellums of 6 week old NPC mice and wild type mice are shown at c, d, i and j. The cerebellums of 8 week old NPC mice and wild type mice are shown at e, f, k and l. The immunohistochemical procedures utilized were: anti-c-Abl, (K12; 1:500) and anti-p73 (H-79; 1:250) (Santa Cruz Biotech, Santa Cruz, Calif.), and anti-calbindin D-28K (1:1,000). Immunohistochemical procedures were carried out by means of histological stain on floating sections. Immunocytochemistry was performed using the avidin biotin horseradish peroxidase complex (ABC) method (Vector Laboratories, Burlingame, Calif.) and sections were mounted on gelatin pre-coated slides and air-dried, then dehydrated in graded ethanol and finally covered with Permount.
The immunohistochemical protocols used are the same as those described above relating to FIG. 1.
The following process was used for in situ apoptosis detection: the terminal deoxynucleotidyl transferase mediated deoxyuridine-biotin (dUTP) nick end labeling (TUNEL) was performed using the apoptosis detection kit purchased from Roche Molecular Biochemicals (Mannheim, Germany). The sections were first incubated in a blocking solution containing 3% H2O2 in methanol. Afterward, slices were incubated in 0.1% Triton X-100 in 0.1% sodium citrate over-night at RT to increase the permeability. After being washed twice in PBS, pH 7.4, the sections were immersed in the TUNEL reaction mixture, containing dUTP-fluorescein and terminal deoxynucleotidyl transferase (TdT) conjugated for 60 minutes at 37° C. in a dark, humid atmosphere. The process was terminated by washing the sections twice in PBS buffer. For the immunofluorescence (IF) sections slides were incubated overnight with rabbit polyclonal anti-calbindin D-28K (1:1,000; Chemicon International, Temecula, Calif.). […] Fluorescent images were captured with an Olympus BX51 microscope and analyzed with IMAGE pro-express.

[3] = test system: cerebella of NPC mice; test: TUNEL immunofluorescence apoptosis analysis on cerebella; conditions: 50 mg/Kg daily intraperitoneally for 28 days, vs saline

SMILES: Cc1ccc(NC(=O)c2ccc(CN3CCN(C)CC3)cc2)cc1Nc1nccc(-c2cccnc2)n1 [imatinib mesylate, 4-(4-methylpiperazin-1-ylmethyl)-N-[4-methyl-3-((4-pyridin-3-yl)(pyrimidin-2-ylamino)phenyl]benzamide methanesulfonate]
- Hanging Test score ([1]; NPC mice): increased the scores
- effect on locomotor activity (Hanging Test) ([1]; wild type mice): does not affect the locomotor activity
- calbindin positive areas for Purkinje neurons ([2]; NPC mice, 50 mg/Kg daily intraperitoneally for 28 days, immunofluorescence): significant increase
- death of Purkinje neurons (calbindin immunohistochemistry) ([2]; NPC mice, 50 mg/Kg daily intraperitoneally for 28 days, vs saline): reduces the death of Purkinje neurons
- calbindin staining ([2]; mouse, in vivo, ip, 50 mg/kg): does not affect the calbindin staining
- apoptosis in cerebella (TUNEL) [3]: decreases apoptosis
- number of TUNEL positive cells [3]: significantly less
